This passage reports PGI, IC50 and inhibition results from ChEMBL document CHEMBL1146817, “Quinoxaline N,N'-dioxide derivatives and related compounds as growth inhibitors of Trypanosoma cruzi. Structure-activity relationships” (Bioorg Med Chem Lett, 2004).

The source made the active and inactive calls. The calls are words filed in the database; no cut-off is given here.

What all share (type): functional
Assay [1] deals with Trypanosoma cruzi. As to the kind of experiment: In vitro percent inhibition of growth against epimastigote form of Trypanosoma cruzi (Tulahuen strain) at 25 uM.
The test system of assay [2] is Trypanosoma cruzi. Briefly: In vitro inhibitory dose against epimastigote form of Trypanosoma cruzi Tulahuen strain. To be noted: read-out: ID50 (the source's name).
For assay [3], the system named is Trypanosoma cruzi. As to the kind of experiment: In vitro inhibitory dose against epimastigote form of Trypanosoma cruzi Brener strain. The conditions noted are these: read-out: ID50 (the source's name).
In assay [4] the target is T1, Glutathione reductase, mitochondrial (Homo sapiens) (UniProt P00390).
T1 sequence (whole entry): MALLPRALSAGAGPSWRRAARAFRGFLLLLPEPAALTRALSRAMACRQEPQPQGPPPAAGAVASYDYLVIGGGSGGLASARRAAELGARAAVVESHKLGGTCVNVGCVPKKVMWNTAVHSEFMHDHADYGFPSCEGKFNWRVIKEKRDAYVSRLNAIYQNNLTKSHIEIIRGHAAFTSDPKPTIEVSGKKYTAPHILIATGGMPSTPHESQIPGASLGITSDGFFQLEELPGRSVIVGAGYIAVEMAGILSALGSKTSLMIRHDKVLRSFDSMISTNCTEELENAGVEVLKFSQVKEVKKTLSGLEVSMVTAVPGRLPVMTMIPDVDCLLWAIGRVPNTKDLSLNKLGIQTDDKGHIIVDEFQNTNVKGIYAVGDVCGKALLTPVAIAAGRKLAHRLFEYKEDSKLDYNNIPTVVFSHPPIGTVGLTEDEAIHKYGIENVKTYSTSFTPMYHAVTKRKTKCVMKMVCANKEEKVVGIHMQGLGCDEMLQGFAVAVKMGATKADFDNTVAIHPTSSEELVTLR
Briefly: In vitro inhibition against human glutathione reductase; IA denotes inactive.

With `Cc1cc2c(cc1C)[n+]([O-])c1cc(/C=N/NC(=O)NCCc3ccccc3)ccc1[n+]2[O-]`, in assay [1], the PGI stood at 17%.

In the case of `Cc1cc2c(cc1C)[n+]([O-])c1cc(C(=O)N3CCN(c4ccccc4)CC3)c(C)cc1[n+]2[O-]`, in assay [1], the PGI is 0%.

For `CN(C)CCCNc1cc2c(cc1C#N)[n+]([O-])c1cc(Cl)ccc1[n+]2[O-]`, the PGI in assay [1] worked out at 16%.

In assay [1], `N#Cc1cc2c(cc1N)[n+]([O-])c1cc(Cl)c(Cl)cc1[n+]2[O-]` showed a PGI of 25%.

Take `N#Cc1cc2c(cc1N1CCN(Cc3ccc4c(c3)OCO4)CC1)[n+]([O-])c1ccc(Cl)cc1[n+]2[O-]`: in assay [1], the PGI was 33%.

`Cc1cc2c(cc1C(=O)N1CCN(c3ccccc3)CC1)[n+]([O-])c1cc(Cl)c(Cl)cc1[n+]2[O-]` returned a PGI in assay [1] of 47%.

`Cc1cc2c(cc1C)[n+]([O-])c1cc(C(=O)N3CCN(c4ccc([N+](=O)[O-])cc4)CC3)c(C)cc1[n+]2[O-]` displayed a PGI in assay [1] of 1%.

In assay [1], `COc1ccc2[nH]c3nnc(N)c-3nc2c1` gave a PGI of 0%.

In assay [1], `COCCNC(=O)N/N=C/c1ccc2c(c1)[n+]([O-])c1cc(C#N)c(N)cc1[n+]2[O-]` returned a PGI of 20%.

`Cc1cc2nc3cc(Cl)c(C#N)cc3nc2cc1C`: the IC50 stood at 19.6 µM in assay [2] and 3 µM in assay [3]. The same compound displayed a PGI in assay [1] of 81%.

Consider `COC(=O)N/N=C/c1ccc2c(c1)[n+]([O-])c1cc(C)c(C)cc1[n+]2[O-]`, for which, in assay [1], the PGI turned out to be 28%.

Take `Cc1ccc2nc3cc(N)c(C#N)cc3nc2c1`: the PGI in assay [1] was 0%.

In the case of `COc1ccc2c(c1)[n+]([O-])c1cc(C#N)c(N3CCN(c4ccc([N+](=O)[O-])cc4)CC3)cc1[n+]2[O-]`, in assay [1], the PGI was determined as 19%.

`N#Cc1cc2c(cc1Nc1ccccc1)[n+]([O-])c1ccc(Cl)cc1[n+]2[O-]` registered a PGI in assay [1] of 63%.

Regarding `N#Cc1cc2c(cc1N1CCN(c3ccc([N+](=O)[O-])cc3)CC1)[n+]([O-])c1ccc(Cl)cc1[n+]2[O-]`, the PGI in assay [1] was found to be 3%.

In assay [1], `Cc1cc2c(cc1C)[n+]([O-])c1cc(NCCCN(C)C)c(C#N)cc1[n+]2[O-]` gave a PGI of 1%.

For `CC(=O)c1cc2c(cc1C)[n+]([O-])c1cc(Cl)ccc1[n+]2[O-]`, the PGI in assay [1] came to 51%.

Regarding `Cc1cc2c(cc1Sc1ccccc1)[n+]([O-])c1cc(Cl)c(Cl)cc1[n+]2[O-]`, the IC50 in assay [2] turned out to be 6.5 µM; in assay [3], 4.5 µM. Besides, the PGI in assay [1] worked out at 93%.

Consider `COc1cc2c(cc1Cl)[n+]([O-])c1cc(N3CCN(c4ccc([N+](=O)[O-])cc4)CC3)c(C#N)cc1[n+]2[O-]`, for which the PGI in assay [1] is recorded as 6%.

Take `c1ccc(CNc2nc(NCc3ccccc3)c3nc4ccccc4nc3n2)cc1`: in assay [1], the PGI turned out to be 31%.

Compound `Cc1ccc2c(c1)[n+]([O-])c1cc(C#N)c(N)cc1[n+]2[O-]` came in with a PGI in assay [1] of 5%.

As for `COC(=O)N/N=C/c1ccc2c(c1)[n+]([O-])c1cc(C#N)c(N)cc1[n+]2[O-]`, the PGI in assay [1] came to 19%.

The compound `N#Cc1cc2c(cc1N)[n+]([O-])c1ccc(/C=N/NC(=O)NCCc3ccccc3)cc1[n+]2[O-]` returned a PGI in assay [1] of 11%.

The compound `Nc1nc(N)c2nc3ccccc3nc2n1` gave a PGI in assay [1] of 0%.

Turning to `COc1ccc2c(c1)[n+]([O-])c1cc(C#N)c(N)cc1[n+]2[O-]`, the PGI in assay [1] was 25%.

`Cc1cc2c(cc1C)[n+]([O-])c1cc(N3CCN(c4ccc([N+](=O)[O-])cc4)CC3)c(C#N)cc1[n+]2[O-]` showed a PGI in assay [1] of 0%.

Turning to `N#Cc1cc2nc3cc(Cl)ccc3nc2cc1Cl`, the IC50 was found to be 4.5 µM in assay [2] and 3 µM in assay [3]. Besides, in assay [1], the PGI is on record as 100%.

In the case of `Cc1cc2c(cc1C(=O)c1ccccc1)[n+]([O-])c1cc(Cl)c(Cl)cc1[n+]2[O-]`, the IC50 is 11.8 µM in assay [2] and 12.5 µM in assay [3]. This compound also yielded a PGI in assay [1] of 91%.

`COc1ccccc1N1CCN(c2cc3c(cc2C#N)[n+]([O-])c2cc(Cl)ccc2[n+]3[O-])CC1`: the values for the IC50 in assay [2] and in assay [3] were 6.5 µM and 9.5 µM, respectively. The compound further yielded a PGI in assay [1] of 100%.

`CCN(CC)CCCC(C)Nc1c2ccc(Cl)cc2nc2ccc(OC)cc12` (stereo not drawn): the inhibition entry in assay [4] was “inactive”.

For the compound `CC1CS(=O)(=O)CCN1/N=C/c1ccc([N+](=O)[O-])o1` (stereo not drawn) [NIFURTIMOX], the IC50 was 7.7 µM in assay [2] and 3.4 µM in assay [3].

As for `N#Cc1cc2c(cc1N1CCN(c3cccc(C(F)(F)F)c3)CC1)[n+]([O-])c1ccc(Cl)cc1[n+]2[O-]`, the IC50 in assay [2] stood at 6.7 µM; in assay [3], 7 µM. For the same compound, the PGI in assay [1] stood at 94%.

The compound `Cc1ccc(Nc2cc3c(cc2C#N)[n+]([O-])c2cc(Cl)ccc2[n+]3[O-])cc1` showed a PGI in assay [1] of 19%.

`CC(=O)c1cc2c(cc1C)[n+]([O-])c1cc(F)ccc1[n+]2[O-]`: the PGI in assay [1] turned out to be 22%.

`N#Cc1cc2c(cc1N)[n+]([O-])c1ccccc1[n+]2[O-]` displayed a PGI in assay [1] of 25%.
